Source: publication PMC5784128, “Glucansucrase (mutant) enzymes from Lactobacillus reuteri 180 efficiently transglucosylate Stevia component rebaudioside A, resulting in a superior taste” (Scientific Reports, 2018)

Target: T1, Gtf180-ΔN (Limosilactobacillus reuteri, UniProt Q5SBN3, Q1140E)
T1 construct: N-terminally truncated fragment (first 741 residues removed), 117 kDa; start 742 derived from the printed truncation
Assay: HPLC time course of transglucosylation
Format: biochemical
Conditions: acceptor substrate; 84 mM RebA, 282 mM sucrose donor, 5 U/mL enzyme, 1 mM CaCl2, pH 4.7, 37 °C

T1 sequence (Q5SBN3 entry or part of it Q1140E): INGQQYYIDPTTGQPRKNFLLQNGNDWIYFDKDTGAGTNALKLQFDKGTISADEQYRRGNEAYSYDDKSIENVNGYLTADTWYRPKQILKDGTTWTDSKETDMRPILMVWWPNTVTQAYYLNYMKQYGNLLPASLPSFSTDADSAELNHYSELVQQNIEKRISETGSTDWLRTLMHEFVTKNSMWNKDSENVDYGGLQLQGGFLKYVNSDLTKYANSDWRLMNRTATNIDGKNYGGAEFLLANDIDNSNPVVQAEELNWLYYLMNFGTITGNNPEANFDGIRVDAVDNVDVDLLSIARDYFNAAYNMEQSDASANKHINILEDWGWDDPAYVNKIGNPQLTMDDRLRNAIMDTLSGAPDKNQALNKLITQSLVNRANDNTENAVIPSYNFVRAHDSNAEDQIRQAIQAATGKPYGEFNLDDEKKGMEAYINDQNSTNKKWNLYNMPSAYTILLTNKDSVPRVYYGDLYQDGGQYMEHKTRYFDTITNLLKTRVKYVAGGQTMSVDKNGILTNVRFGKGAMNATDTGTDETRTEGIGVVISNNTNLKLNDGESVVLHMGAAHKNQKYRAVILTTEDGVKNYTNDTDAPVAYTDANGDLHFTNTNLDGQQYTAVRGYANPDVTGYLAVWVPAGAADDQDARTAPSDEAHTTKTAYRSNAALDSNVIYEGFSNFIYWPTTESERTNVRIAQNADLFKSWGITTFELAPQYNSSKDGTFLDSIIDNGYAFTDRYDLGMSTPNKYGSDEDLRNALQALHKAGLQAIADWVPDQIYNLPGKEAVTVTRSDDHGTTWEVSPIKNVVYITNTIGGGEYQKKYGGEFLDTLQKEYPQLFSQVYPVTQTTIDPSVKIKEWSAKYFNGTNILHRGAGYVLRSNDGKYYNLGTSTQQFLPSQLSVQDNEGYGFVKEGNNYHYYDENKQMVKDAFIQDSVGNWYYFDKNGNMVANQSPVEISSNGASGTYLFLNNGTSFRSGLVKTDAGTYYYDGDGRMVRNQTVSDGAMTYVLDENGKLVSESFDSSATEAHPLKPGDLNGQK

C=C1C[C@@]23CC[C@H]4[C@@](C)(CCC[C@@]4(C)C(=O)O[C@@H]4O[C@H](CO)[C@@H](O)[C@H](O)[C@H]4O)[C@@H]2CC[C@]1(O[C@@H]1O[C@H](CO)[C@@H](O)[C@H](O[C@@H]2O[C@H](CO)[C@@H](O)[C@H](O)[C@H]2O)[C@H]1O[C@@H]1O[C@H](CO)[C@@H](O)[C@H](O)[C@H]1O)C3 [rebaudioside A]
HPLC time course of transglucosylation: the Q1140E-mutant not only converted more RebA into RebA-G than wild-type Gtf180-ΔN
